{
  "source": "paper PMC12234328",
  "about": "“A naphthalimide derivative exerts potent antiplatelet and antithrombotic activities without a bleeding tendency” (Frontiers in Pharmacology, 2025)",
  "format_in_all_cases": "cell-based",
  "key": {"[1]": {"tested_on": "human platelet suspensions stimulated with collagen", "experiment": "Collagen-induced platelet aggregation (turbidimetric, lumi-aggregometer)", "from_the_text": "This study received approval from the Taipei Medical University–Joint Institutional Review Board (TMU-JIRB-No. N202003148) and adhered to the principles of the Declaration of Helsinki. Informed consent was obtained from all volunteers before their participation. Human platelets were washed and prepared according to previously established methods ([Lu et al., 2019]). Whole blood was collected from healthy participants who had not taken any medications, including nonsteroidal anti-inflammatory drugs or aspirin, in the preceding 2 weeks. The blood was drawn into polypropylene tubes containing an acid citrate–dextrose solution (9:1, v/v). After mixing, the samples were centrifuged at 120 g for 10 min. The upper layer of platelet-rich plasma was collected and supplemented with prostaglandin E1 and heparin. Following further centrifugation at 500 g for 10 min, the platelet pellets were washed twice. The platelets were then resuspended in Tyrode’s solution containing 3.5 mg/mL bovine serum albumin (B.S.A.) to create platelet suspensions. The final Ca^2+ concentration of the platelet suspensions (3.6 × 10^8 cells/mL) was 1 mM.\nPlatelet aggregation was measured using a lumi-aggregometer (Payton, Scarborough, Canada) through the turbidimetric method ([Lu et al., 2019]). Human platelet suspensions (3.6 × 10^8 cells/mL) were treated with compound 6 (1–50 μM) or an isovolumetric solvent control (0.1% DMSO) for 3 min. Subsequently, various agonists were added and platelet aggregation was then recorded for an additional 6 min.\nFIGURE 2 Effects of compound 6 on human platelet aggregation triggered by various agonists. (A–C) Washed platelets (3.6 × 10^8 cells/mL) were treated with compound 6 (1–50 μM) or dimethyl sulfoxide (DMSO; solvent control) before adding 1 μg/mL collagen (A), 0.02 U/mL thrombin (B), and 1 μM U46619 (C). Panels A–C present the curve of platelet aggregation, and panel D presents the statistical analysis of panels A–C. Data (D) are presented as means ± SEM (n = 4). ###p < 0.001 compared with the DMSO group."}, "[2]": {"tested_on": "collagen-triggered calcium mobilization in human platelets", "experiment": "Calcium mobilization in human platelet suspensions (Fura-2 AM)", "conditions": "2.5 and 5 μM, collagen 1 μg/mL, n = 4", "experimental": "(§1) Adenosine triphosphate (ATP) release and calcium mobilization were assessed as previously described ([Shih et al., 2021]). Luciferase–luciferin and Fura-2 AM were used to detect ATP release and calcium mobilization, respectively. The intensity of luminescence (indicating ATP release) and the fluorescence ratio (340 nm/380 nm) for calcium mobilization were measured using a Hitachi Spectrometer F-7000 (Tokyo, Japan) following the manufacturer’s instructions.\n(§2) FIGURE 8 Effects of compound 6 on ATP release, calcium mobilization, and GPIIb–IIIa activation triggered by collagen in human platelets. Washed platelets (3.6 × 10^8 cells/mL) were treated with compound 6 (C6, 2.5 and 5 μM) or DMSO and then stimulated with collagen (1 μg/mL) to trigger ATP release (A), calcium mobilization (B), and GPIIb–IIIa activation (C) that were detected using luciferase/luciferin, Fura-2 AM, and APC–PAC1 antibodies, respectively. Data (A–C) are presented as means ± SEM (n = 4). **p < 0.01 and ***p < 0.001 compared with the resting group. #p < 0.05, ##p < 0.01, and ###p < 0.001 compared with the DMSO (solvent control) group."}, "[3]": {"tested_on": "collagen-triggered ATP release in human platelets", "experiment": "ATP release in human platelet suspensions (luciferase/luciferin)", "conditions": "2.5 and 5 μM, collagen 1 μg/mL, n = 4", "experimental": "as §1, §2"}},
  "data": [
    {"smiles": "CCCCN1C(=O)c2cccc3c(NCCNC(=O)C45CC6CC(CC(C6)C4)C5)ccc(c23)C1=O", "note": "[compound 6]", "values": [
      {"measurement": "Antiplatelet effect at the same concentration, compound 6 versus compound 5", "setting": "[1]; 5 μM, collagen 1 μg/mL, Supplementary Figure S1", "result": "better antiplatelet effects than compound 5"},
      {"measurement": "IC50", "setting": "[1]; Platelet, washed human platelets, 1 μg/mL collagen", "result": "~2.5", "unit": "µM"},
      {"measurement": "Potency in inhibiting collagen-induced platelet aggregation relative to compound 5", "setting": "[1]; comparison with ref Shih et al., 2021", "result": "twice as high"},
      {"measurement": "Calcium mobilization", "setting": "[2]", "result": "significantly reduce"},
      {"measurement": "Collagen-triggered ATP release", "setting": "[3]", "result": "markedly reduced"}
    ]}
  ]
}
